For four molecules, half-life results are on record in patent US9133137B2, “Derivatives of gefitinib” (Concert Pharmaceuticals, Inc., priority 2008, dated 2015).

Read-outs that look alike come from different tables or passages of the source.

The series can be described thus: Metabolic stability in human liver microsomes (in vitro t1/2). The format is in vitro ADME. Particulars: pooled human liver microsomes, pooled human liver microsomes 3.0 mg/mL, test compound 0.5 μM, NADPH, 37° C. The method, then:
Microsomal Assay: Human liver microsomes (20 mg/mL) were obtained from Xenotech, LLC (Lenexa, Kans.). βnicotinamide adenine dinucleotide phosphate, reduced form (NADPH), magnesium chloride (MgCl2), and dimethyl sulfoxide (DMSO) were purchased from SigmaAldrich. The incubation mixtures were prepared according to Table 2:
Determination of Metabolic Stability: Two aliquots of this reaction mixture were used for a compound of this invention. The aliquots were incubated in a shaking water bath at 37° C. for 3 minutes. The test compound was then added into each aliquot at a final concentration of 0.5 μM. The reaction was initiated by the addition of cofactor (NADPH) into one aliquot (the other aliquot lacking NADPH served as the negative control). Both aliquots were then incubated in a shaking water bath at 37° C. Fifty microliters (50 μL) of the incubation mixtures were withdrawn in triplicate from each aliquot at 0, 5, 10, 20, and 30 minutes and combined with 50 μL of ice-cold acetonitrile to terminate the reaction. The same procedure was followed for gefitinib and 7-ethoxycoumarin, the positive control. Testing was done in triplicate.
Data analysis: The in vitro half-lives (t1/2s) for test compounds were calculated from the slopes of the linear regression of % parent remaining (ln) vs incubation time relationship using the following formula: in vitro t1/2=0.693/k, where k=[slope of linear regression of % parent remaining(ln)vs incubation time] Data analysis was performed using Microsoft Excel Software.
The metabolic stability of compounds of Formula A or I was tested using pooled liver microsomal incubations. Full scan LCMS analysis was then performed to detect major metabolites. Samples of the test compounds, exposed to pooled human liver microsomes, were analyzed using HPLCMS (or MS/MS) detection. For determining metabolic stability, multiple reaction monitoring (MRM) was used to measure the disappearance of the test compounds. For metabolite detection, Q1 full scans were used as survey scans to detect the major metabolites.
For orientation: Liver microsomes are a subcellular fraction often used to study metabolism.

Setting [1] is: Experiment No. 1, read-out: t½ (min), Experiment No. 1.
Where [2] appears, read: Experiment No. 2, read-out: t½ (min), Experiment No. 2.
Setting [3] is: Experiment No. 3, read-out: t½ (min), Experiment No. 3.
The mark [4] stands for this setting: average of experiments 1-3, read-out: t½ (min), Ave.

Consider `[2H]C([2H])([2H])Oc1cc2ncnc(Nc3ccc(F)c(Cl)c3)c2cc1OC([2H])([2H])C([2H])([2H])C([2H])([2H])N1C([2H])([2H])C([2H])([2H])OC([2H])([2H])C1([2H])[2H]` [Compound 101, N-(3-Chloro-4-fluorophenyl)-7-(methoxy-d3)-6-(3-(morpholino-d8)propoxy-d6)quinazolin-4-amine], for which the half-life at 0.5 μM under setting [1] stood at 24.3 min, the half-life at 0.5 μM under setting [2] amounted to 23.8 min, the half-life at 0.5 μM under setting [3] is 23.1 min and the half-life at 0.5 μM under setting [4] was 23.7 min.

As for `[2H]C([2H])([2H])Oc1cc2ncnc(Nc3ccc(F)c(Cl)c3)c2cc1OC([2H])([2H])C([2H])([2H])C([2H])([2H])N1CCOCC1` [Compound 102, N-(3-Chloro-4-fluorophenyl)-7-(methoxy-d3)-6-(3-morpholino(propoxy-d6))quinazolin-4-amine], the half-life at 0.5 μM under setting [1] stood at 22.5 min, the half-life at 0.5 μM under setting [2] worked out at 20.8 min, the half-life at 0.5 μM under setting [3] stood at 21.8 min and the half-life at 0.5 μM under setting [4] was determined as 21.7 min.

In the case of `[2H]C([2H])([2H])Oc1cc2ncnc(Nc3ccc(F)c(Cl)c3)c2cc1OCCCN1CCOCC1` [Compound 104, N-(3-Chloro-4-fluorophenyl)-7-(methoxy-d3)-6-(3-morpholinopropoxy)quinazolin-4-amine], the half-life at 0.5 μM came to 22.5 min under setting [1], 20.8 min under setting [2], 21.8 min under setting [3] and 21.7 min under setting [4].

For the molecule `COc1cc2ncnc(Nc3ccc(F)c(Cl)c3)c2cc1OCCCN1CCOCC1` [Gefitinib, (3-chloro-4-fluoro-phenyl)-[7-methoxy-6-(3-morpholin-4-yl-propoxy)-quinazolin-4-yl]-amine], the half-life at 0.5 μM was 19.4 min under setting [1], 17.6 min under setting [2], 19.8 min under setting [3] and 18.9 min under setting [4].
